Measured values as given in patent US20220334101A1, “MODULATING EXTRACELLULAR MATRIX MOVEMENT” (Helmholtz Zentrum Muenchen - Deutsches Forschungszentrum …, priority 2019, published 2022).
Entries after “also recorded” stand apart in the source; their conditions may differ. Where a SMILES comes first, the peptide text is derived from it.

Assays:
liver tissue = assay: In vivo effects on ECM movement in the presence of modulators (FIG. 20); settings: FIG. 20, modulator administered after injury
Method: An injury within liver tissue was generated, a potential modulator was administered and ECM movement was monitored.

peritoneum = assay: ECM (matrix) movement into peritoneal wounds after laparotomy injury, NHS-FITC matrix labelling; assay type: in vivo, mouse; settings: for organ specificity of the effect on matrix currents: livers and peritoneas compared
liver = assay: ECM (matrix) movement into liver wounds after electroporation injury, NHS-FITC matrix labelling; assay type: in vivo, mouse
[1] = system: pleural fluid matrix movement into lungs; assay: Bleomycin-induced lung fibrosis model with pleural matrix fate tracing; assay type: in vivo, mouse
Method: The inventors generated a labelling solution by mixing 5 μl NHS-ester (25 mg/ml) with 5 μl of 100 mM pH 9.0 sodium bicarbonate buffer, combining with 40 μl PBS to a total volume of 50 μl. The labelling solution was applied intra pleural under isoflurane anaesthesia by using a 30G cannula. The oropharyngeal administration of bleomycin for the induction of pulmonary fibrosis was carried out in an antagonistic anesthesia in C57BL/6J mice of both sexes (6-8 weeks age). After the toe-pinch reflex was absent, the mouse was placed on the incisors of the upper jaw and thus kept in an upright position. The tongue was carefully fixed and held to the side with tweezers while the nose of the animal is covered with tweezers. By keeping the nose closed, the mouse was forced to breathe through the mouth. With the help of a pipette, bleomycin was dissolved in a dosage of 2 units/kg KGW in 80 μl PBS carefully into the throat. As soon as the animal has inhaled the solution, it was tansferred to a Hot plate (duration approx. 30 to 60 seconds). After antagonization animals were housed for 14 days. Nintedanib was added 1 hour before bleomycin installation and every other day intra peritoneal 10 μM. To directly answer if Nintedanib's anti-fibrotic actions are mediated through its effects on fluid matrix movements, the Inventors labeled fluid matrix reservoirs on lung surfaces as before, induced lung inflammation and fibrosis with Bleomycin, and followed these mice with daily injections of Nintedanib (FIG. 44B). […] Both lung alveoli and major blood vessels lacked accretions of labeled fibers.

fascia fibroblasts = assay: Fascia invasion assay (ex vivo fascia 3D Matrigel culture); assay type: cell-based, mouse
Method: In order to observe the dynamic changes of fascia fibroblasts, the inventors isolated dorsal skin from P4 to P6 neonates of En1^Cre; R26^mTmG mouse lines. Cre positive neonates from this double transgenic mouse line were detected by green fluorescent signal in dorsal skin with a Leica M205 FA stereo microscope. Matrigel was prepared by diluting the stock aliquots with DMEM/F12 medium to a concentration of 6 mg/ml. Then 150 μl prepared gel was added in the center of a 35 mm cell culture dish (Ibidi). 4 mm biopsies were made from the dorsal skin and fascia tissues were then isolated from the dorsal skin tissues. Isolated fascia tissues were then embedded into the gel and were allowed to be solidified for one hour at 37° C. Then the tissue-gel system was maintained in DMEM/F12 medium (Life Technologies) supplemented with 10% FBS (Life Technologies), 1% non-essential amino acid (Thermo Fisher), 1% Glutamax (Thermo Fisher), 1% penicillin and streptomycin (Thermo Fisher) in a 37° C. incubator supplied with 95% O2 and 5% CO2. Medium was changed every other day until day 4 when tissues were collected and fixed. For fixation with Matrigel system, tissues were fixed in 2% paraformaldehyde (VWR) with 0.1% glutaraldehyde (Sigma) for 1 hour and then washed three times with phosphate buffered saline (PBS, Life Technologies) and stored in PBS at 4° C.
Fascia tissues were recorded everyday by a brightfield microscope to check the invasion and contraction state of the tissues. The invasion index was calculated with the following formula: Invasion index=(SD4−SD0)/SD0
SD4 and SD0 represent tissue size (including the migrated area) on Day 4 and Day 0, respectively. The contraction index was calculated with the following formula: Contraction index=(TD0−TD4)/TD0
TD4 and TD0 represent original tissue size (excluding the migrated area) on Day 4 and Day 0 respectively.
The Inventors isolated fascia from back-skin of En1^Cre; R26^mTmG double-transgenic mice, separately incubated whole fascia explants with 26 small molecules, and measured the invasion index (Si)=(SD4−SD0)/SD0 (see Methods) as a proxy measure of sprouting and reticulation.

[2] = inhibitors 10 μM i.p. 2 hours before surgery, organs harvested after 24 h, FITC in wound lysates

| Compound | effect on ECM movement towards the site of injury (phenotype) (liver tissue) | ECM (matrix) movement, peritoneum (peritoneum; [2]) | ECM (matrix) movement, liver (liver; [2]) | other results |
| --- | --- | --- | --- | --- |
| O=C(O)C1(c2ccc3c(c2)OC[C@H](Cc2ccc(-c4ccccc4)cc2)[C@H]3O)CCCC1 [CP-105696] | anti-fibrotic phenotype |  |  |  |
| CC(C)C[C@H](NC(=O)[C@@H](O)[C@H](N)Cc1ccccc1)C(=O)O [BESTATIN] |  | decreased |  |  |
| O=c1c(O)c(-c2ccc(O)c(O)c2)oc2cc(O)cc(O)c12 [Quercetin] |  | decreased | decreased |  |
| CC(=N)NCc1cccc(CN)c1 [Prestw 1400W, 1400W] | anti-fibrotic phenotypes |  |  | effect on ECM movement towards the site of injury (phenotype) (liver tissue; listed as W1400): inhibit ECM movement |
| N#CCCN [BAPN] |  |  |  | ECM (matrix) movement, peritoneum (peritoneum; mouse, in vivo, ip): increased; ECM (matrix) movement, liver (liver; mouse, in vivo, ip): increased |
| CNC(=O)[C@H](Cc1c[nH]c2ccccc12)NC(=O)[C@@H](CC(=O)NO)CC(C)C [GM6001] | anti-fibrotic phenotypes; also recorded: inhibit ECM movement | decreased |  | potency among the protease inhibitors on matrix currents (liver; livers and peritoneas): most potent; ECM (matrix) movement, liver (liver; mouse, in vivo, ip): decreased |
| COC(=O)[C@@H](N)CCCNC(=N)N[N+](=O)[O-] [L-Name] | anti-fibrotic phenotype |  |  |  |
| O=CN1CC/C(=C\c2ccc3c(c2)OCO3)C1=O [KNK437] |  | decreased | decreased |  |
| COC(=O)c1ccc2c(c1)NC(=O)/C2=C(\Nc1ccc(N(C)C(=O)CN2CCN(C)CC2)cc1)c1ccccc1 [Nintedanib] |  |  |  | inward translocations (movements) of fluid matrix ([1]; Nintedanib 10 μM i.p. 1 hour before bleomycin and repeatedly, 14 days): completely abrogated; activation of lung interstitial fibroblasts into myofibroblasts ([1]; two weeks after bleomycin): refrained from activating into pathologic YAP/TAZ-positive myofibroblasts; matrix on lung surfaces (pleural matrix pools): structures and fluorescence intensity ([1]; two weeks after bleomycin): maintained the same structures and fluorescence intensity; also recorded: rescues pleural matrix pools; fibrotic developments along lung airways and bronchioles ([1]; two weeks after bleomycin, histology): very minimal signs of fibrotic developments |
| N#CC(=C(O)c1ccc(Cl)cc1Cl)c1nc2cc(Cl)ccc2c(=O)[nH]1 [Ciliobrevin D] |  | decreased |  | organ specificity of the effect on matrix currents (peritoneum): effected matrix currents of only one organ |
| COC(=O)Nc1nc2ccc(Sc3ccccc3)cc2[nH]1 [Fenbendazole] |  |  |  | toxic effects to fascia tissues (fascia fibroblasts): toxic effects |
| COC(=O)CCC(=O)N[C@@H](C)C(=O)N[C@@H](C)C(=O)N1CCC[C@H]1C(=O)N[C@@H](C)C(=O)CCl [elastase inhibitor II] (HELM PEPTIDE1{[COC(=O)CCC(=O)[*:2]].A.A.P.A.[ClC[*:1]]}$$$$V2.0) |  | increased | increased |  |
| CC(C)C[C@H](NC(=O)N[C@H](C(=O)N[C@@H](CCC(N)=O)C(=O)N[C@@H](C)C=O)[C@@H]1CCNC(=N)N1)C(=O)O [Elastatinal] |  | increased | increased | effect on ECM movement towards the site of injury (phenotype) (liver tissue; listed as Elastial): pro-fibrotic phenotype; effect on ECM movement towards the site of injury (phenotype) (liver tissue; listed as elastial): promote ECM movement |
| CN(C(=O)c1cc2ccccc2cc1C(=O)C(c1cccc2ccccc12)P(=O)(O)O)C1CCN(C(=O)c2ccccc2)CC1 (stereo not shown) [Cath-G inhibitor] | anti-fibrotic phenotypes |  | decreased | effect on ECM movement towards the site of injury (phenotype) (liver tissue; listed as cathepsin G inhibitors): inhibit ECM movement |
| O=C1c2ccc([N+](=O)[O-])cc2N=C2N(c3ccccc3)CC[C@@]12O [(S)-nitro-Blebbistatin] |  | decreased |  | organ specificity of the effect on matrix currents (peritoneum): effected matrix currents of only one organ |
| CCc1cc(C(C)=O)c(O)cc1OCCCCCC(C)(C)c1nn[nH]n1 [LY255283] | anti-fibrotic phenotypes; also recorded: inhibit ECM movement |  |  |  |
